Active and inactive are the calls of the source.
Tests used:
[1] = target: T1, Serine/threonine-protein phosphatase (Candida dubliniensis (strain CD36 / CBS 7987 / NCPF 3949 / NRRLY-17841) (Yeast), UniProt B9W6M3); assay: calcineurin pathway inhibitors in yeast reporter, dose response, S. cerevisiae, CDRE-lacZ, luminescence, secondary (AID 2388); format: functional, cell-based;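 also: yeast reporter cells carrying a calcineurin-responsive lacZ construct stimulated with calcium chloride; luminescent beta-galactosidase reporter signal in whole cells rather than isolated phosphatase activity; potency for inhibition where a drop in reporter signal means calcineurin blockade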
T1 sequence (B9W6M3 whole entry): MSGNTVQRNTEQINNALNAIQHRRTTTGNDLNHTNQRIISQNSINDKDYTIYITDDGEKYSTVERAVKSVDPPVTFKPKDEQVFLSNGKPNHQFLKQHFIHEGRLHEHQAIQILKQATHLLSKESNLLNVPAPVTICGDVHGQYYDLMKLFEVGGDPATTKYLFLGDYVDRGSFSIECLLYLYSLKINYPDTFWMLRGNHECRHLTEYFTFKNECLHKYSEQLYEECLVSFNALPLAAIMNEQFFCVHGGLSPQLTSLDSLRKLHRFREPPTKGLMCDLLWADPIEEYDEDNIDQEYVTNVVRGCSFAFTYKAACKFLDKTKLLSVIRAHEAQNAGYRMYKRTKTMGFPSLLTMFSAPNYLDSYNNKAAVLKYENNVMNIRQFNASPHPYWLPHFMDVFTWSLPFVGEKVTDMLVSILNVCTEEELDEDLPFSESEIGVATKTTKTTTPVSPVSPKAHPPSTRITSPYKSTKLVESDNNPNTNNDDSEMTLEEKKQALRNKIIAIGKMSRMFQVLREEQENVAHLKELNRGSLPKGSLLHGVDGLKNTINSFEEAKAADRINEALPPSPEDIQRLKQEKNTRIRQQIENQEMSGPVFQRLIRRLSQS

[2] = growth suppression of beta-catenin-knockout colon cells, dose response, cell-based, HCT116, human colon tumor (AID 1045); format: functional;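 also: HCT116 colon tumor cells with beta catenin knocked out; cells exposed to compound for 60 hours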
[3] = target: T2, Histone-lysine N-methyltransferase NSD2 (Homo sapiens, UniProt O96028); format: biochemical
T2 sequence (O96028 whole entry): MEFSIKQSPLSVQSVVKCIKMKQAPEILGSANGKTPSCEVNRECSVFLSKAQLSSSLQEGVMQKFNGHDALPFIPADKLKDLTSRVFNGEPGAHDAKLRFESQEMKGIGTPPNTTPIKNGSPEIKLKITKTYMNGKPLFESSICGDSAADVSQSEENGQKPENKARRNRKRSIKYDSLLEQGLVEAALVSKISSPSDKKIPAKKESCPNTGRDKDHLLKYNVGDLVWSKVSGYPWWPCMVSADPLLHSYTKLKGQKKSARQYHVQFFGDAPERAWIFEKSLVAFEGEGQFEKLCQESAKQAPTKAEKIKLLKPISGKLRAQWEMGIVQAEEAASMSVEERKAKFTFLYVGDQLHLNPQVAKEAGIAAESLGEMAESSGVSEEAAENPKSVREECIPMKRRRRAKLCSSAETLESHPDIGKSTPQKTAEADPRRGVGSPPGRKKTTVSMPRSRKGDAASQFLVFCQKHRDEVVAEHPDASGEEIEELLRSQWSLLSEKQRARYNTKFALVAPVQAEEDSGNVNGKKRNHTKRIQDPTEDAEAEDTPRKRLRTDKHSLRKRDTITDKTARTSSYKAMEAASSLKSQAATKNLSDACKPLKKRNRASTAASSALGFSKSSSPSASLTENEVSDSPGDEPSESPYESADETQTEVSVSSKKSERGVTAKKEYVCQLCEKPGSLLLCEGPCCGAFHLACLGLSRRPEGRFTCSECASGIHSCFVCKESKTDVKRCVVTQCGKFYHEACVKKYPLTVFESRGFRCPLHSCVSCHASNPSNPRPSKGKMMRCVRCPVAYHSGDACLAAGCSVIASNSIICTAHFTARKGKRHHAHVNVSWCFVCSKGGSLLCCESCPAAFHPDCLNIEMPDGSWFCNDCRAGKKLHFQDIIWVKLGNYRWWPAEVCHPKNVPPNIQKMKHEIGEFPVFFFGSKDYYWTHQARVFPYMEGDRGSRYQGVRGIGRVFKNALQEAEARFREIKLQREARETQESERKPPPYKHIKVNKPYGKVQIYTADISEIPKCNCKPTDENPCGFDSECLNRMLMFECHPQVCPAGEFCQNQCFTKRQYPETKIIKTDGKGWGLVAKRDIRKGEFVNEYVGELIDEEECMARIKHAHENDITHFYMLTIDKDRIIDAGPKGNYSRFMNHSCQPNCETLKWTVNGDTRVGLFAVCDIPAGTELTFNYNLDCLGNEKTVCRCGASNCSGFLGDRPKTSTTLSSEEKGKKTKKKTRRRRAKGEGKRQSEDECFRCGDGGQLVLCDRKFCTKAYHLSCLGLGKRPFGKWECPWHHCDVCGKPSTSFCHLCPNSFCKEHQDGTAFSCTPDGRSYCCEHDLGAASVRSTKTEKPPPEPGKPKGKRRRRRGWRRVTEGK

[4] = target: T3, Hexokinase HKDC1 (Homo sapiens, UniProt Q2TB90); assay: HKDC1 hexokinase inhibitors, dose response, biochemical, W721R variant (AID 504729); format: functional
T3 sequence (Q2TB90 whole entry): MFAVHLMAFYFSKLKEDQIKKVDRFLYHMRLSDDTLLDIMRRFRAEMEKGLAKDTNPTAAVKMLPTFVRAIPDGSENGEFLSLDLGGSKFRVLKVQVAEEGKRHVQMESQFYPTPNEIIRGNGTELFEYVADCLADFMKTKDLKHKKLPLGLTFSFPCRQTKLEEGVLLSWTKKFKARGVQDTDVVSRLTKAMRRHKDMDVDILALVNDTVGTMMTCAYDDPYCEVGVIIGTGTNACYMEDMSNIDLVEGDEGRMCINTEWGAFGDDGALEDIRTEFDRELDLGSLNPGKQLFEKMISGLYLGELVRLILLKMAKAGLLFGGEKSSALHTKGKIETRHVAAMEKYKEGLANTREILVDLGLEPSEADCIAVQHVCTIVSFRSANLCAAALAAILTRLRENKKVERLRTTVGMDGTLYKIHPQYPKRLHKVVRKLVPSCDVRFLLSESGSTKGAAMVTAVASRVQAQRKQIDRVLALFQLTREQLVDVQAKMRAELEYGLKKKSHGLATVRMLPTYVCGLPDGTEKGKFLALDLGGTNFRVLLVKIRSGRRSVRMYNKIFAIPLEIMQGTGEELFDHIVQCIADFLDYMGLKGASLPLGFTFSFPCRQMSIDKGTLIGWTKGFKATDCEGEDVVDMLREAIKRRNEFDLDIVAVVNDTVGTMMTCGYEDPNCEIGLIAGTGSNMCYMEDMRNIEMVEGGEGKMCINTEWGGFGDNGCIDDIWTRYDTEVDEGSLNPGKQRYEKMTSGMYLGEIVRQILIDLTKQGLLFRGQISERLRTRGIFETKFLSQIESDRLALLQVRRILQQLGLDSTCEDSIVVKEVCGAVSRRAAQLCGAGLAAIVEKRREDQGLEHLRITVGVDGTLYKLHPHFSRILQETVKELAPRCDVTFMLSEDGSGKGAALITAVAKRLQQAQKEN

Row | Structure (SMILES) | EC50 [1] | EC50 [2] | AC50 [3] | IC50 [4]
1 | Cc1ccc(NC2=CC(=O)C(=O)c3ccccc32)cc1 | > 180 µM (inactive) | 4.52 µM (active) | 13 µM (active) | 
2 | O=C(O)c1ccc(S(=O)(=O)/N=C2\C=C(Nc3ccccc3F)C(=O)c3ccccc32)cc1 |  |  |  | 3 µM (active)
